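Results reflect a 48-hour exposure of cells in 96-well plates to compound at five concentrations. Abbreviation: GI50, concentration required for 50% inhibition of growth. The concentration for full growth arrest is given as TGI.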
Tests used:
Experiment in all cases: growth of human tumour cells (NCI), 48 h
OVCAR-4 ovarian = test system: OVCAR-4 ovarian
NCI-H23 lung = test system: NCI-H23 lung
SK-MEL-2 melanoma = test system: SK-MEL-2 melanoma
NCI-H460 lung = test system: NCI-H460 lung
HCT-116 colon = test system: HCT-116 colon
CCRF-CEM leukemia = test system: CCRF-CEM leukemia
SW-620 colon = test system: SW-620 colon
HOP-92 NSCLC = test system: HOP-92 NSCLC
K-562 leukemia = test system: K-562 leukemia
LOX IMVI melanoma = test system: LOX IMVI melanoma
SK-OV-3 ovarian = test system: SK-OV-3 ovarian
U251 CNS = test system: U251 CNS
MALME-3M melanoma = test system: MALME-3M melanoma

Structure (SMILES): CC1CC(c2ccc([N+](=O)[O-])cc2)=Nc2ccccc2S1=O (stereo unspecified)
- TGI (OVCAR-4 ovarian): 62.3 µM
- TGI (NCI-H23 lung): 37.2 µM
- TGI (SK-MEL-2 melanoma): > 100 µM
- TGI (NCI-H460 lung): 34.3 µM
- TGI (HCT-116 colon): 4.72 µM
- TGI (CCRF-CEM leukemia): 42.2 µM
- TGI (SW-620 colon): 29.3 µM
- TGI (HOP-92 NSCLC): > 100 µM
- TGI (K-562 leukemia): 75 µM
- TGI (LOX IMVI melanoma): 25.6 µM
- TGI (SK-OV-3 ovarian): 64.9 µM
- TGI (U251 CNS): 27.7 µM

Structure (SMILES): Cc1ccc(C(=O)N/N=C(\N=Nc2ccccc2)c2ccc(N(CCC#N)CCC#N)cc2C)cc1
- TGI (OVCAR-4 ovarian): > 100 µM
- TGI (NCI-H23 lung): > 100 µM
- TGI (SK-MEL-2 melanoma): > 100 µM
- TGI (NCI-H460 lung): > 100 µM
- TGI (CCRF-CEM leukemia): > 100 µM
- TGI (SW-620 colon): > 100 µM
- TGI (HOP-92 NSCLC): > 100 µM
- TGI (K-562 leukemia): > 100 µM
- TGI (LOX IMVI melanoma): > 100 µM
- TGI (SK-OV-3 ovarian): > 100 µM
- TGI (U251 CNS): > 100 µM

Structure (SMILES): O=c1[nH]c(=S)c2[nH]c(=O)n(-c3ccccc3)c2[nH]1
- TGI (OVCAR-4 ovarian): > 100 µM
- TGI (NCI-H23 lung): > 100 µM
- TGI (SK-MEL-2 melanoma): > 100 µM
- TGI (NCI-H460 lung): > 100 µM
- TGI (HCT-116 colon): > 100 µM
- TGI (SW-620 colon): > 100 µM
- TGI (HOP-92 NSCLC): > 100 µM
- TGI (K-562 leukemia): > 100 µM
- TGI (LOX IMVI melanoma): > 100 µM
- TGI (MALME-3M melanoma): > 100 µM
- TGI (U251 CNS): > 100 µM

Structure (SMILES): COc1ccc2oc3c(ccc[n+]3C)c(=O)c2c1
- TGI (OVCAR-4 ovarian): > 100 µM
- TGI (NCI-H23 lung): > 100 µM
- TGI (SK-MEL-2 melanoma): > 100 µM
- TGI (NCI-H460 lung): > 100 µM
- TGI (HCT-116 colon): > 100 µM
- TGI (CCRF-CEM leukemia): > 100 µM
- TGI (SW-620 colon): > 100 µM
- TGI (HOP-92 NSCLC): > 100 µM
- TGI (K-562 leukemia): > 100 µM
- TGI (LOX IMVI melanoma): > 100 µM
- TGI (MALME-3M melanoma): > 100 µM
- TGI (SK-OV-3 ovarian): > 100 µM
- TGI (U251 CNS): > 100 µM

Structure (SMILES): CC(=O)O[C@@H]1CN(S(=O)(=O)c2ccc(C)cc2)C[C@@H]1C1CCCCC1
- TGI (OVCAR-4 ovarian): > 100 µM
- TGI (NCI-H23 lung): > 100 µM
- TGI (SK-MEL-2 melanoma): 32.2 µM
- TGI (NCI-H460 lung): > 100 µM
- TGI (CCRF-CEM leukemia): > 100 µM
- TGI (SW-620 colon): 41.3 µM
- TGI (HOP-92 NSCLC): 33.8 µM
- TGI (K-562 leukemia): > 100 µM
- TGI (LOX IMVI melanoma): 64 µM
- TGI (SK-OV-3 ovarian): > 100 µM
- TGI (U251 CNS): 37.2 µM

Structure (SMILES): O=C1NC(=O)C2(CCc3ccc(N(CCCl)CCCl)cc32)N1 (stereo unspecified)
- TGI (OVCAR-4 ovarian): 41.4 µM
- TGI (NCI-H23 lung): 26.2 µM
- TGI (SK-MEL-2 melanoma): 43.4 µM
- TGI (NCI-H460 lung): 23.8 µM
- TGI (HCT-116 colon): 31.7 µM
- TGI (CCRF-CEM leukemia): > 79.7 µM
- TGI (SW-620 colon): 61.9 µM
- TGI (HOP-92 NSCLC): 39.7 µM
- TGI (K-562 leukemia): > 100 µM
- TGI (LOX IMVI melanoma): 26.5 µM
- TGI (SK-OV-3 ovarian): 47 µM
- TGI (U251 CNS): 33 µM

Structure (SMILES): C/C=C1/C(=O)O[C@]23C=C[C@@H]4C(C(=O)OC)=CO[C@H](O[C@@H]12)[C@@H]43
- TGI (OVCAR-4 ovarian): 2.98 µM
- TGI (NCI-H23 lung): 3.51 µM
- TGI (SK-MEL-2 melanoma): 3.76 µM
- TGI (NCI-H460 lung): 32.4 µM
- TGI (HCT-116 colon): 1.97 µM
- TGI (CCRF-CEM leukemia): 3.56 µM
- TGI (HOP-92 NSCLC): 3.74 µM
- TGI (K-562 leukemia): 7.93 µM
- TGI (LOX IMVI melanoma): 0.725 µM
- TGI (MALME-3M melanoma): 5.61 µM
- TGI (SK-OV-3 ovarian): 9.75 µM
- TGI (U251 CNS): 5.9 µM

Structure (SMILES): COc1cc2c(cc1O)N=C[C@@H]1CCC(O)N1C2=O (mixture of isomers)
- TGI (OVCAR-4 ovarian): 18 µM
- TGI (NCI-H23 lung): 4.38 µM
- TGI (SK-MEL-2 melanoma): 0.748 µM
- TGI (NCI-H460 lung): 11.4 µM
- TGI (HCT-116 colon): 34 µM
- TGI (CCRF-CEM leukemia): 1.66 µM
- TGI (SW-620 colon): 6.96 µM
- TGI (HOP-92 NSCLC): 2.46 µM
- TGI (K-562 leukemia): 24.2 µM
- TGI (LOX IMVI melanoma): 0.974 µM
- TGI (MALME-3M melanoma): 1.42 µM
- TGI (SK-OV-3 ovarian): 84 µM
- TGI (U251 CNS): 1.71 µM

Structure (SMILES): Nc1ccc2c(c1)S(=O)(=O)c1cc(N)ccc1-2
- TGI (OVCAR-4 ovarian): > 100 µM
- TGI (NCI-H23 lung): > 100 µM
- TGI (SK-MEL-2 melanoma): > 100 µM
- TGI (NCI-H460 lung): > 100 µM
- TGI (HCT-116 colon): > 100 µM
- TGI (SW-620 colon): > 100 µM
- TGI (HOP-92 NSCLC): > 100 µM
- TGI (K-562 leukemia): > 100 µM
- TGI (LOX IMVI melanoma): > 100 µM
- TGI (SK-OV-3 ovarian): > 100 µM
- TGI (U251 CNS): > 100 µM

Structure (SMILES): O=c1ccc2nc3ccc(O)cc3oc-2c1
- TGI (OVCAR-4 ovarian): > 100 µM
- TGI (NCI-H23 lung): 14.3 µM
- TGI (SK-MEL-2 melanoma): 57.7 µM
- TGI (NCI-H460 lung): > 100 µM
- TGI (HCT-116 colon): > 100 µM
- TGI (CCRF-CEM leukemia): > 100 µM
- TGI (SW-620 colon): > 88.9 µM
- TGI (HOP-92 NSCLC): > 100 µM
- TGI (K-562 leukemia): 34.7 µM
- TGI (LOX IMVI melanoma): 7.86 µM
- TGI (MALME-3M melanoma): 8.76 µM
- TGI (SK-OV-3 ovarian): > 100 µM
- TGI (U251 CNS): > 100 µM

Structure (SMILES): CC(CNc1nc(Nc2ccc(Cl)c(Cl)c2)nc(C(Cl)(Cl)Cl)n1)N(C)C (stereo unspecified)
- GI50 (NCI-H23 lung): 1.63 µM
- TGI (NCI-H23 lung): 3.38 µM
- GI50 (NCI-H460 lung): 1.66 µM
- TGI (NCI-H460 lung): 3.11 µM
- GI50 (SW-620 colon): 1.6 µM
- TGI (SW-620 colon): 2.95 µM
- GI50 (HOP-92 NSCLC): 1.35 µM
- TGI (HOP-92 NSCLC): 4.16 µM
- GI50 (MALME-3M melanoma): 1.79 µM
- TGI (MALME-3M melanoma): 3.79 µM
- GI50 (SK-OV-3 ovarian): 1.6 µM
- TGI (SK-OV-3 ovarian): 3.18 µM

From PubChem BioAssay (NCI)
